# Measurements reported in paper PMC11855827, “High-Throughput Screening of Five Compound Libraries for Anthelmintic Activity and Toxicity Leads to the Discovery of Two Flavonoid Compounds” (International Journal of Molecular Sciences, 2025).
# “And” between values parts separate entries of the source, which are not always exact repeats. Equal entries are not always repeated. Where two headings read alike, the source gives them in different places.
# Test system: C. elegans
# [1] = Table S2, C. elegans SS assay, 110 μM, 0 h, averages of 4 data points
# [2] = Table S2, C. elegans SS assay, 110 μM, 24 h, averages of 4 data points
SMILES,Percentage of motility inhibition 0 h [1],Percentage of motility inhibition 24 h [2],Percentage of motility inhibition 0 h (110 µM),Percentage of motility inhibition 24 h (110 µM)
CC1=C[C@H]2[C@@H](CC1)[C@H](C)CC[C@H]2[C@@H](C)C(=O)O [Dihydroartemisinic acid],0%,15%,,
CC(=O)OC(C)(C)CCC(=O)[C@](C)(O)[C@H]1[C@H](O)C[C@@]2(C)[C@@H]3CC=C4[C@@H](C[C@H](O)C(=O)C4(C)C)[C@]3(C)C(=O)C[C@]12C [Dihydrocucurbitacin B],0%,11%,,
CCCCCCCCCCCCCc1cc(=O)c2ccccc2n1C [Dihydroevocarpine],3%,0%,,
O[C@H]1[C@H]2c3cc4c(cc3CN3CC[C@H](C[C@@H]1O)[C@H]23)OCO4 [Dihydrolycorine],0%,0%,,
CN[C@@H]1[C@H](O[C@H]2[C@H](O[C@H]3[C@H](O)[C@@H](O)[C@H](NC(=N)N)[C@@H](O)[C@@H]3NC(=N)N)O[C@@H](C)[C@]2(O)CO)O[C@@H](CO)[C@H](O)[C@H]1O.CN[C@@H]1[C@H](O[C@H]2[C@H](O[C@H]3[C@H](O)[C@@H](O)[C@H](NC(=N)N)[C@@H](O)[C@@H]3NC(=N)N)O[C@@H](C)[C@]2(O)CO)O[C@@H](CO)[C@H](O)[C@H]1O.O=S(=O)(O)O.O=S(=O)(O)O.O=S(=O)(O)O [Dihydrostreptomycin (sulfate)],0%,0%,,
Br.CO[C@H]1CC=C2CCN3CCC4=C(CC(=O)OC4)[C@]23C1 [Dihydro‐β‐er ythroidine (hydrobromide)],7%,6%,,
COc1ccc(-c2cc(=O)c3c(O)cc(O[C@@H]4O[C@H](C(=O)O)[C@@H](O)[C@H](O)[C@H]4O)cc3o2)cc1O [DiosMetin 7‐O‐β‐D‐Glucuronide],4%,21%,,
C[C@@]12C[C@H](c3ccoc3)O[C@@]13C[C@H](OC3=O)[C@H]1[C@H]2C[C@@H]2C[C@H]1C(=O)O2 [Diosbulbin B],0%,31%,,
COc1ccc(-c2cc(=O)c3c(O)cc(O[C@@H]4O[C@H](CO)[C@@H](O)[C@H](O)[C@H]4O)cc3o2)cc1O [Diosmetin‐7‐O‐β‐D‐glucopyranoside],53%,10%,,
COc1ccc(-c2cc(=O)c3c(O)cc(O[C@@H]4O[C@H](CO[C@@H]5O[C@@H](C)[C@H](O)[C@@H](O)[C@H]5O)[C@@H](O)[C@H](O)[C@H]4O)cc3o2)cc1O [Diosmin],,10% and 4%,,
Cn1c(=O)c2c(ncn2CC(O)CO)n(C)c1=O (stereo not drawn) [Diphylline],66%,31%,,
CC1(C)[C@@H](O[C@H]2O[C@H](C(=O)[O-])[C@@H](O)[C@H](O)[C@H]2O[C@@H]2O[C@H](C(=O)[O-])[C@@H](O)[C@H](O)[C@H]2O)CC[C@]2(C)[C@H]3C(=O)C=C4[C@@H]5C[C@@](C)(C(=O)O)CC[C@]5(C)CC[C@@]4(C)[C@]3(C)CC[C@@H]12.[K+].[K+] [Dipotassium glycyrrhizinate],17% and 15%,3%,,
C[C@@H]1O[C@@H](O[C@H]2[C@H](O[C@H]3CC[C@@]4(C)[C@@H](CC[C@]5(C)[C@@H]4CC=C4[C@@H]6CC(C)(C)CC[C@]6(C(=O)O[C@@H]6O[C@H](CO[C@@H]7O[C@H](CO)[C@@H](O)[C@H](O)[C@H]7O)[C@@H](O)[C@H](O)[C@H]6O)CC[C@]45C)[C@]3(C)CO)OC[C@H](O)[C@@H]2O)[C@H](O)[C@H](O)[C@H]1O [Dipsacoside B],,,7%,5%
O=C([O-])CCC(=O)[O-].[Na+].[Na+] [Disodium succinate],19%,1%,,
C[C@@H]1CCO[C@H]2Cn3cc(C(=O)NCc4ccc(F)cc4F)c(=O)c([O-])c3C(=O)N12.[Na+] [Dolutegravir (sodium)],0%,17%,,
CO[C@H]1C[C@H](O[C@H]2[C@H](C)O[C@@H](O[C@@H]3/C(C)=C/C[C@@H]4C[C@@H](C[C@]5(C=C[C@H](C)[C@@H](C6CCCCC6)O5)O4)OC(=O)[C@@H]4C=C(C)[C@@H](O)[C@H]5OC/C(=C\C=C\[C@@H]3C)[C@]54O)C[C@@H]2OC)O[C@@H](C)[C@@H]1O [Doramectin],66%,49%,,
C[C@@H](O)[C@H]1C(=O)N2C(C(=O)O)=C(S[C@@H]3CN[C@H](CNS(N)(=O)=O)C3)[C@H](C)[C@H]12.O [Doripenem (monohydrate)],15%,7%,,
COc1cccc2c1C(=O)c1c(O)c3c(c(O)c1C2=O)C[C@@](O)(C(=O)CO)C[C@@H]3O[C@H]1C[C@H](N)[C@H](O)[C@H](C)O1.Cl [Doxorubicin (hydrochloride)],13%,4%,,
C[C@@H]1NC(=O)N[C@@H]1CCCCCC(=O)O [D‐Desthiobiotin],18%,4%,,

SMILES,Percentage of motility inhibition 0 h [1],Percentage of motility inhibition 24 h [2],Percentage of motility inhibition 0 h (110 µM),Percentage of motility inhibition 24 h (110 µM)
COc1cc2c(cc1OC)[C@H]1Cc3ccc(OC)c(OC)c3CN1CC2 [D‐Tetrahydropalmatine],0%,0%,,
C[C@H]1CC[C@H]2[C@H](C)[C@H]3CC[C@@H]4[C@@H](C[C@H]5[C@H]4CC(=O)[C@H]4C[C@@H](O)CC[C@@]45C)[C@@H]3CN2C1 [Ebeiedinone],0%,4%,,
CC1(C)CC[C@]2(C(=O)O[C@@H]3O[C@H](CO)[C@@H](O)[C@H](O)[C@H]3O)[C@H](O)C[C@]3(C)C(=CC[C@@H]4[C@@]5(C)CC[C@H](O)C(C)(C)[C@@H]5CC[C@]43C)[C@@H]2C1 [Echinocystic acid 28-O-β-D-glucoside],36%,41%,,
CC1(C)CC[C@]2(C(=O)O[C@@H]3O[C@H](CO)[C@@H](O)[C@H](O)[C@H]3O)[C@H](O)C[C@]3(C)C(=CC[C@@H]4[C@@]5(C)CC[C@H](O[C@@H]6O[C@H](CO)[C@@H](O)[C@H](O)[C@H]6O)C(C)(C)[C@@H]5CC[C@]43C)[C@@H]2C1 [Eclalbasaponin I],35%,35%,,
Clc1ccc(COC(Cn2ccnc2)c2ccc(Cl)cc2Cl)cc1.O=[N+]([O-])O (stereo not drawn) [Econazole (nitrate)],35%,13%,,
C[C@H]1CC[C@@H]2N(C1)C[C@H]1[C@@H]3C[C@H]4[C@@H](CC(=O)[C@H]5C[C@@H](O[C@@H]6O[C@H](CO)[C@@H](O)[C@H](O)[C@H]6O)CC[C@@]54C)[C@@H]3CC[C@@H]1[C@]2(C)O [Edpetiline],11%,56%,,
Cc1c2ccncc2c(C)c2c1[nH]c1ccccc12.Cl [Ellipticine (hydrochloride)],9%,11%,,
CC[C@H]1CN2CCc3cc(OC)c(OC)cc3[C@@H]2C[C@@H]1C[C@H]1NCCc2cc(OC)c(OC)cc21.Cl.Cl.O [Emetine (dihydrochloride hydrate)],52%,7%,,
CC(C)C[C@H]1C(=O)O[C@H](Cc2ccc(N3CCOCC3)cc2)C(=O)N(C)[C@@H](CC(C)C)C(=O)O[C@H](C)C(=O)N(C)[C@@H](CC(C)C)C(=O)O[C@H](Cc2ccc(N3CCOCC3)cc2)C(=O)N(C)[C@@H](CC(C)C)C(=O)O[C@H](C)C(=O)N1C [Emodepside],69%,47%,,
CCn1cc(C(=O)O)c(=O)c2cc(F)c(N3CCNCC3)nc21 [Enoxacin (hydrate)],17%,0%,,
CS/C=C/C(=O)NCCO[C@@H]1O[C@H](CO)[C@@H](O)[C@H](O)[C@H]1O [Entadamide‐A‐β‐D‐glucopyranoside],24%,13%,,
C=C1[C@H](CO)[C@@H](O)C[C@@H]1n1cnc2c(=O)[nH]c(N)nc21.O [Entecavir (monohydrate)],18%,3%,,
COc1cc2c(cc1OC)-c1cc3ccc4c(c3c[n+]1CC2)OCO4.[Cl-] [Epiberberine (chloride)],22%,8%,,
C=CC1CNC(=S)O1 (stereo not drawn) [Epigoitrin],6%,0%,,
COc1ccc(-c2oc3c(CC=C(C)C)c(O[C@@H]4O[C@H](CO)[C@@H](O)[C@H](O)[C@H]4O)cc(O)c3c(=O)c2O[C@@H]2O[C@@H](C)[C@H](O)[C@@H](O[C@@H]3O[C@H](CO)[C@@H](O)[C@H](O)[C@H]3O)[C@H]2O)cc1 [Epimedin A1],6%,5%,,
COc1ccc(-c2oc3c(CC=C(C)C)c(O[C@@H]4O[C@H](CO)[C@@H](O)[C@H](O)[C@H]4O)cc(O)c3c(=O)c2O[C@@H]2O[C@@H](C)[C@H](O)[C@@H](O)[C@H]2O[C@@H]2OC[C@@H](O)[C@H](O)[C@H]2O)cc1 [Epimedin B],15%,32%,,
COc1ccc(-c2oc3c(CC=C(C)C)c(O[C@@H]4O[C@H](CO)[C@@H](O)[C@H](O)[C@H]4O)cc(O)c3c(=O)c2O[C@@H]2O[C@@H](C)[C@H](O)[C@@H](O)[C@H]2O[C@@H]2O[C@@H](C)[C@H](O)[C@@H](O)[C@H]2O)cc1 [Epmedin C],0%,0%,,
C=C1C(=O)O[C@H]2[C@H]1CC[C@]1(C)O[C@@]13CC[C@@](C)(O)[C@H]23 [Epoxymicheliolide],16%,24%,,
C[N+](C)(C)[C@@H](Cc1c[nH]c(=S)[nH]1)C(=O)[O-] [Ergothioneine],16%,0%,,
